Data published in patent US6440980B1, “Synergistic inhibition of viral replication by long-chain hydrocarbons and nucleoside analogs” (Avanir Pharmaceuticals, priority 1996, dated 2002).
Where two headings read alike, the source gives them in different places.

Tests used:
[1] = Inflammation or toxicity at treated skin sites (Example 15); conditions: 96 hours, alone or in combination
[2] = test system: vaccinia virus; test: microbe, parasite or virus in culture; type: cell-based, vaccinia virus (WR strain); conditions: cultures that lacked PFA; 15 mM n-docosanol
[3] = test system: Cytomegalovirus (CMV); test: CMV infectious center assay in MRC-5 cells; type: cell-based, human cytomegalovirus (Towne strain)
[4] = test system: HSV-2; test: Inhibition of HSV-2 plaque formation in Vero cells
[5] = male, hairless, guinea pig, in vivo, 2 day
[6] = test system: HSV-1; test: HSV-1 PFU production in Vero cell cultures; type: cell-based, HSV-1 (MacIntyre strain)
[7] = test system: Vero cells; conditions: African green monkey, 9 mM
[8] = test system: Fetal Foreskin Cells; test: Cell viability by trypan blue exclusion, fetal foreskin cells; type: cell-based, human; conditions: for Fetal Foreskin Cells No. Viable: 9 mM n-docosanol in 1.4 mM surfactant (4:1 w:w), trypan blue exclusion; for Fetal Foreskin Cells % Control: 9 mM n-docosanol in 1.4 mM surfactant, control = media only
Method: Typical data are presented in Table 3, showing that the total number of viable Vero cells and foreskin fibroblasts was unchanged after 24 hr to 72 hr incubation with the aliphatic alcohol suspension.

[9] = test system: B cell hybridoma (MBI-9); test: 3H-thymidine incorporation into DNA of B cell hybridoma; type: cell-based, murine; conditions: Mus musculus, 48 hr incubation, read-out: IC50 estimated by extrapolation
[10] = test system: Early viral protein synthesis; conditions: Katz et al. 1991; cited from earlier work
[11] = test system: all cell lines tested; test: Cytotoxicity in mammalian cell cultures; conditions: read-out: IC50 (cellular toxicity by chain length)
Text: Three assays were used to quantitate the effects of aliphatic alcohols on cell survival and proliferation: 1) counting cells with a hemocytometer and determining the number of cells that exclude trypan blue; 2) measuring the incorporation of ^3H-thymidine into cellular DNA by adding ^3H-thymidine (from New England Nuclear) to the culture medium, lysing the cells with water and harvesting the DNA onto filter paper; and 3) measuring total cellular protein using a sulforhodamine assay adapted for use in 96-well microtiter plates (Skehan et al., J. Natl. Cancer Inst. […] All of these methods are well known cell viability and cytotoxicity assays.

[12] = test system: human foreskin fibroblasts; test: Cell proliferation (cytostasis), sulforhodamine staining; type: cell-based; conditions: 1,000 cells/well, 96-hours incubation
Method: The effects of n-docosanol and n-docosane suspensions on cell proliferation (cytostasis) were quantitated using the sulforhodamine staining assay on cultures of human foreskin fibroblasts incubated in 96-well plates.
Foreskin fibroblasts were plated with or without aliphatic alcohol suspensions or control surfactant suspensions at 1,000 cells/well (FIG. 6A and FIG. 7) or at 30,000 cells/well (FIG. 6B) in 96 well plates. After incubation for 72 hr or 96 hr at 37° C., cells were precipitated with trichloroacetic acid, stained with sulforhodamine and quantitated by measuring the OD540 in a microtiter plate reader.

[13] = test system: HSV-2; test: Cutaneous HSV-2 model in hairless guinea pigs, combination cream (Example 15); type: in vivo
[14] = test system: HSV-2; test: Topical treatment of HSV-2 in guinea pig model, number of vesicles (Example 9); type: in vivo, hairless guinea pigs; conditions: mean; for Number of Vesicles Day 2: 48 hr post-inoculation; for Number of Vesicles Day 3: 72 hr post-inoculation; for Number of Vesicles Day 4: 96 hr post-inoculation
[15] = test system: Varicella Zoster Virus (VZV); test: VZV infectious center assay in MRC-5 cells; type: cell-based, human varicella zoster virus (Ellen strain); conditions: for IC per Culture × 10^−4: no ACV, medium only 35
[16] = Human betaherpesvirus 5, MRC5, read-out: % Inhibition of infected cells
[17] = Human alphaherpesvirus 2, Vero, read-out: Percent Inhibition of Plaque Formation

CCCCCCCCCCCCCCCCCCCCCCO [n-docosanol]
induced inflammation or toxicity [1]: not detected
inhibition of vaccinia virus replication (in words) [2]: does not inhibit replication of vaccinia virus
inhibition at 3300 µM [3, 16]: 20%
inhibition at 10000 µM [3, 16]: 60%
inhibition at 30000 µM [3, 16]: 85%
EC50 ([3]; Human betaherpesvirus 5, MRC5, read-out: n-docosanol EC50 for inhibition of CMV replication, MRC-5 cells): ~10 mM
fewer plaques than untreated or PLURONIC F-68-treated controls ([4]; 3 mM n-docosanol, without ACV): 40%
EC50 ([4]; Human alphaherpesvirus 2, Vero, read-out: 50% Inhibition Concentration (mM)): 8.6 mM
EC50 ([4]; Human alphaherpesvirus 2, Vero, read-out: EC50 of plaque formation inhibition, octoxynol (TRITON X-100) suspension): ~4.5 mM
inhibition at 1000 µM [4, 17]: 14%
inhibition at 2000 µM [4, 17]: 40%
inhibition at 4000 µM [4, 17]: 36%
inhibition at 8000 µM [4, 17]: 44%
inhibition at 15000 µM [4, 17]: 66%
EC50 ([4]; Human alphaherpesvirus 2, Vero, read-out: amount of n-docosanol required for 50% inhibition of plaque production, after increasing the ratio of surfactant to n-docosanol): 3 mM
EC50 ([4]; Human alphaherpesvirus 2, Vero, read-out: amount of n-docosanol required for 50% inhibition of plaque production, before increasing the ratio of surfactant to n-docosanol): 15 mM
EC50 ([4]; Human alphaherpesvirus 2, Vero, read-out: effective concentration required to inhibit plaque formation by 50% (EC50), surfactant suspension, Example 5): 9 mM
EC50 ([4]; Human alphaherpesvirus 2, Vero, read-out: n-docosanol EC50, HSV-2 plaque formation, in conjunction with ACV in the range of 0.2-10 μM): 2 to 3 mM
EC50 ([4]; Human alphaherpesvirus 2, Vero, read-out: n-docosanol EC50, HSV-2 plaque formation, used alone): 2 to 3 mM
n-docosanol concentrations inhibiting plaque formation relative to octoxynol control ([4]; octoxynol (TRITON X-100) suspension): greater than or equal to 2 mM
Irritation Score Day 2 [5]: 0
fewer HSV-1 PFU than untreated cultures ([6]; 15 mM n-docosanol alone, three days post-infection): about 10 fold
inhibition at 3300 µM ([6]; Human alphaherpesvirus 1, Vero, read-out: inhibition of PFU production): 55%
Vero Cells % Control ([7]; 24 h): 101%
Vero Cells No. Viable ([7]; 24 h): 7.48 × 10^5
Vero Cells % Control ([7]; 48 h): 137%
Vero Cells No. Viable ([7]; 48 h): 8.69 × 10^5
Vero Cells % Control ([7]; 72 h): 120%
Vero Cells No. Viable ([7]; 72 h): 8.61 × 10^5
Fetal Foreskin Cells No. Viable ([8]; 24 hr): 2.41 × 10^5
Fetal Foreskin Cells No. Viable ([8]; 48 hr): 2.78 × 10^5
Fetal Foreskin Cells No. Viable ([8]; 72 hr): 2.72 × 10^5
Fetal Foreskin Cells % Control ([8]; 24 hr): 131%
Fetal Foreskin Cells % Control ([8]; 48 hr): 118%
Fetal Foreskin Cells % Control ([8]; 72 hr): 118%
IC50 [9]: ~20 mM
inhibition of early viral protein synthesis [10]: more than 80%
IC50 [11]: > 15 mM
n-docosanol concentration that inhibited proliferation of cells [12]: greater than 3 mM
reduction of mean vesicle numbers ([13]; 96 hours post-HSV-2-inoculation, cream two times daily, untreated mean 27 vesicles): 63%
mean AUC (mean number of vesicles times hours vesicles were observed) ([13]; cream two times daily, untreated 698): 464 vesicle hours
inhibition of AUC ([13]; vs untreated AUC 698 vesicle hours): 34%
Number of Vesicles Day 2 ([14]; 10% w/w cream topically 3X/day from 24 hr post-inoculation): 40
Number of Vesicles Day 3 ([14]; 10% w/w cream topically 3X/day): 12
Number of Vesicles Day 4 ([14]; 10% w/w cream topically 3X/day): 3
Number of Vesicles Day 2 ([14]; 10% w/w cream topically 5X/day): 43
Number of Vesicles Day 3 ([14]; 10% w/w cream topically 5X/day): 5
Number of Vesicles Day 4 ([14]; 10% w/w cream topically 5X/day): 3
EC50 ([15]; Human alphaherpesvirus 3, MRC5, MRC-5 cells, read-out: n-docosanol EC50 for inhibition of VZV replication): ~10 mM
inhibition at 3300 µM ([15]; Human alphaherpesvirus 3, MRC5, VZV, n-Docosanol 3.3 mM, read-out: % Inhibition of infected cells): 40%
inhibition at 10000 µM ([15]; Human alphaherpesvirus 3, MRC5, VZV, n-Docosanol 10 mM, read-out: % Inhibition of infected cells): 57%
inhibition at 30000 µM ([15]; Human alphaherpesvirus 3, MRC5, VZV, n-Docosanol 30 mM, read-out: % Inhibition of infected cells): 80%
IC per Culture × 10^−4 ([15]; VZV, n-Docosanol 3.3 mM): 21 × 10^−4
IC per Culture × 10^−4 ([15]; VZV, n-Docosanol 10 mM): 15 × 10^−4
IC per Culture × 10^−4 ([15]; VZV, n-Docosanol 30 mM): 7 × 10^−4
